Data from patent publication US11801252B2, “Pharmaceutical composition” (Jiangsu Hengrui Medicine Co., Ltd., priority 2021, dated 2023).
Where two headings read alike, the source gives them in different places.

What was measured:
[1] = In vivo food effects study in healthy subjects (Test Example 3); set-up: species or system human (healthy male subjects); conditions: after Test Formulation 300 mg single oral; for AUC—% Extrap of SNAC / CLz/F of SNAC / λz of SNAC: healthy male subjects, Mean ± SD; for AUC(0-t) / AUC(0-inf) / Cmax / MRT last / MRT inf / Vd/F / half-life / Tmax: male, human, plasma, po, 300 mg; for AUC(0-t): read-out: AUC0-t of SNAC; for AUC(0-inf): read-out: AUC0-∞ of SNAC; for Cmax: read-out: Cmax of SNAC; for MRT last: read-out: MRT0-t of SNAC; for MRT inf: read-out: MRT0-∞ of SNAC; for Vd/F: read-out: Vz/F of SNAC; for half-life: read-out: t1/2 of SNAC (converted); for Tmax: read-out: Tmax of SNAC
Source text: To study the effect of food on the pharmacokinetic characteristics of abiraterone acetate tablets through a single oral administration of abiraterone acetate tablets under fasting state or after meal, or a single oral administration of abiraterone acetate tablets (Zytiga®) produced by Patheon Inc. under modified fasting state, in healthy subjects.
A single-center, randomized, open-label, three-period, self-controlled crossover trial design was applied. A total of 24 healthy male subjects were planned to be enrolled in the study. The washout period between each dose group was seven days. Blood samples were collected at a series of time points, and safety test was performed. The HPLC-MS/MS method was used to determine the plasma concentration of abiraterone and SNAC at different time points after drug administration. The non-compartmental model was used to calculate the pharmacokinetic parameters, and statistical analysis was performed.
The subjects were orally administered a single dose of the test formulation (T) under fasting state at a dose of 300 mg (150 mg×2 tablets), a single dose of the test formulation (T) of 300 mg abiraterone acetate tablets (I) (150 mg×2 tablets) after a high-fat meal (the total calories were approximately 800˜1,000 kcal, wherein approximately 50% of the calories were derived from fat; the test meal of each test cycle for the postprandial administration should be consistent; a high-fat meal was given 30 minutes before drug administration and should be finished within 30 minutes), or a single dose of the reference preparation of 1,000 mg abiraterone acetate tablets (Zytiga®) (250 mg×4 tablets) under modified fasting state (a medium-fat meal was given two hours before drug administration and one hour after drug administration; the total calories were approximately 450 kcal wherein 30% of the calories were derived from fat; the meal should be finished within 30 minutes), with 240 mL of warm water, in the morning on the day of drug administration for each cycle. Liquid was prohibited before administration and one hour after drug administration, and a standard lunch and dinner (a standardized light diet) were given approximately 4 and 10 hours after drug administration. The drug was swallowed whole instead of being sucked or chewed.
Test Formulation (T): Abiraterone acetate tablets (Formulation 5), specification: 150 mg;
Reference Preparation (R): Abiraterone Acetate Tablets; produced by Patheon Inc.; trade name: Zytiga®; specification: 250 mg.
The PKPS was used for the statistical analysis of pharmacokinetic parameters.
With the dosing order, dosing cycle and dosing regimen as fixed effects, the subjects were included as random effects in the linear mixed model as random effects. The least-squares mean ratio of Cmax, AUC0-t and AUC0-∞ of abiraterone in plasma after oral administration of the test formulation T under a high-fat meal or fasting states, and its 90% confidence interval were calculated.
With the dosing orders, dosing cycle and dosing regimen as fixed effects, the subjects were included as random effects in the linear mixed model. The least-squares mean ratio of Cmax, AUC0-t and AUC0-∞ of abiraterone in plasma after oral administration of the test formulation T under a high-fat meal and oral administration of the reference formulation R under modified fasting states, and its 90% confidence interval were calculated.

[2] = stated without source; cited from earlier work
[3] = Pharmacokinetics study in male cynomolgus monkeys (Test Example 1); format: in vivo; conditions: cynomolgus monkey, plasma, po, 300 mg/animal, after Formulation 2 (2 tablets, 300 mg/animal) PO, mean ± SD; for AUC(0-inf): n = 8, read-out: AUC(0-∞) of SNAC in plasma; for Cmax: n = 8, read-out: Cmax of SNAC in plasma; for half-life: n = 8, read-out: T1/2 of SNAC in plasma (converted); for Tmax: n = 8, read-out: Tmax of SNAC in plasma; for AUC(0-t): t = 24 h, n = 8, read-out: AUC(0-t) of SNAC in plasma
Experimental: Eight male cynomolgus monkeys were administered by single oral gavage, including 4 cycles, 5 days per cycle, 20 days in total (see Table 4 for the protocol).
The animals in cycle I and II were fasted before administration, while the animals in cycle III and IV were given high-fat food before administration. Animals in cycle I and III were given 300 mg of Formulation 2 (2 tablets of abiraterone acetate, T, comprising 300 mg of abiraterone), while animals in cycle II and IV were given 1000 mg of reference preparation (4 tablets of abiraterone acetate Zytiga®, R). Blood samples were collected before administration or at 0.25, 0.5, 1, 1.5, 2, 2.5, 3, 4, 8, 12 and 24 hours after administration. The validated LC-MS/MS method was used to determine the concentrations of abiraterone and SNAC in plasma samples. Only abiraterone was detected for those given reference preparation, while abiraterone and SNAC were both detected for those given test formulations. The main pharmacokinetic parameters were calculated according to the concentrations of abiraterone and SNAC in plasma using Phoenix WinNonlin® 7.0 software. The main pharmacokinetic data of abiraterone in plasma in cycles I-IV are shown in Table 5, and the main pharmacokinetic data of SNAC in plasma in cycles I and III are shown in Table 6.

[4] = after a high-fat meal, N = 24, Mean ± SD
[5] = fasting state, N = 23, Mean ± SD

For `O=C([O-])CCCCCCCNC(=O)c1ccccc1O.[Na+]` [SNAC, sodium 8-(salicylamido)caprylate], the “AUC—% Extrap of SNAC” value ([1]; after a high-fat meal, N = 24) was 0.46 ± 0.63%, the “CLz/F of SNAC” value ([1]; after a high-fat meal, N = 24) was 198.03 ± 28.78 mL/h and the “λz of SNAC” value ([1]; after a high-fat meal, N = 24) was 0.27 ± 0.12 h⁻¹. For the same compound, the “AUC—% Extrap of SNAC” value ([1]; fasting state, N = 23) was 0.66 ± 0.54%, the “CLz/F of SNAC” value ([1]; fasting state, N = 23) was 255.02 ± 72.16 mL/h and the “λz of SNAC” value ([1]; fasting state, N = 23) was 0.19 ± 0.08 h⁻¹. It also gave an AUC(0-t) [1, 4] of 1540 ± 247 ng·h/mL, an AUC(0-inf) [1, 4] of 1550 ± 245 ng·h/mL and a Cmax [1, 4] of 1120 ± 574 ng/mL. It also gave an MRT last [1, 4] of 2.28 ± 0.99 h, an MRT inf [1, 4] of 2.36 ± 1 h and a Vd/F [1, 4] of 0.87 ± 0.362 L. For the same compound, the half-life [1, 4] was 184 ± 71.4 min, the Tmax ([1]; after a high-fat meal, N = 24, median) was 67.8 min and the AUC(0-t) [1, 5] was 1250 ± 305 ng·h/mL. The AUC(0-inf) [1, 5] was 1250 ± 306 ng·h/mL, the Cmax [1, 5] was 1580 ± 697 ng/mL and the MRT last [1, 5] was 1.59 ± 1.35 h. For the same compound, the MRT inf [1, 5] was 1.74 ± 1.38 h, the Vd/F [1, 5] was 1.62 ± 0.949 L and the half-life [1, 5] was 253 ± 103 min. For the same compound, the Tmax ([1]; fasting state, N = 23, median) was 30 min, the PKA [2] was 5.0 and the AUC(0-inf) ([3]; fasting) was 40900 ± 10600 ng·h/mL. For the same compound, the Cmax ([3]; fasting) was 34200 ± 18000 ng/mL, the half-life ([3]; fasting) was 190 ± 55.8 min and the Tmax ([3]; fasting) was 0.72 ± 0.49 h. The AUC(0-inf) ([3]; high fat diet) was 18700 ± 5620 ng·h/mL, the Cmax ([3]; high fat diet) was 4660 ± 2400 ng/mL and the half-life ([3]; high fat diet) was 163 ± 44.4 min. The Tmax ([3]; high fat diet) was 2.88 ± 0.74 h, the AUC(0-t) ([3]; fasting) was 40300 ± 10400 ng·h/mL and the AUC(0-t) ([3]; high fat diet) was 18400 ± 5740 ng·h/mL.
